Like-named read-outs stand apart in the source and are kept apart here.
Legend:
Details in all cases: 10 ug/ml AMT, 200 mW/cm2 UV-A
[1] = test system: WNV (CDC) M29539 (NY99-35262-11); experiment: AMT photo-inactivation of arbovirus: West Nile Virus; format: cell-based, West Nile Virus (WNV)
[2] = test system: YF (FMD 1240); format: cell-based, Yellow Fever (YF)
[3] = test system: VEE TC 83 TVB 5215; format: cell-based, Venezuelan Equine Encephalitis (VEE)
[4] = test system: SLE TBH-28 CDC M29777; experiment: AMT photo-inactivation of arbovirus: Saint Louis Encephalitis; format: cell-based, Saint Louis Encephalitis (SLE)

## Cc1oc2c(C)c3oc(=O)cc(C)c3cc2c1CN.Cl [AMT, 4′-Aminomethyltrioxsalen hydrochloride]
[1]; 0 minutes
  WNV (CDC) M29539 (NY99-35262-11) titer after AMT and UV-A: 8.00E+04 PFU/ml
[1]; 1 minute
  WNV (CDC) M29539 (NY99-35262-11) titer after AMT and UV-A: 1.68E+04 PFU/ml
[1]; 5 minutes
  WNV (CDC) M29539 (NY99-35262-11) titer after AMT and UV-A: 5.00E+01 PFU/ml
[1]; 10 minutes
  WNV (CDC) M29539 (NY99-35262-11) titer after AMT and UV-A: 0 PFU/ml
[1]; 20 minutes
  WNV (CDC) M29539 (NY99-35262-11) titer after AMT and UV-A: 0 PFU/ml
[2]; 0 minutes
  YF (FMD 1240) titer after AMT and UV-A: 1.47E+05 PFU/ml
[2]; 1 minute
  YF (FMD 1240) titer after AMT and UV-A: 3.68E+04 PFU/ml
[2]; 5 minutes
  YF (FMD 1240) titer after AMT and UV-A: 9.00E+01 PFU/ml
[2]; 10 minutes
  YF (FMD 1240) titer after AMT and UV-A: 0 PFU/ml
[2]; 20 minutes
  YF (FMD 1240) titer after AMT and UV-A: 0 PFU/ml
[3]; 0 minutes
  VEE TC 83 TVB 5215 titer after AMT and UV-A: 1.72E+09 PFU/ml
[3]; 1 minute
  VEE TC 83 TVB 5215 titer after AMT and UV-A: 1.60E+08 PFU/ml
[3]; 5 minutes
  VEE TC 83 TVB 5215 titer after AMT and UV-A: 4.80E+04 PFU/ml
[3]; 10 minutes
  VEE TC 83 TVB 5215 titer after AMT and UV-A: 1.50E+02 PFU/ml
[3]; 20 minutes
  VEE TC 83 TVB 5215 titer after AMT and UV-A: 0 PFU/ml
[4]; 0 minutes
  SLE TBH-28 CDC M29777 titer after AMT and UV-A: 3.20E+03 PFU/ml
[4]; 1 minute
  SLE TBH-28 CDC M29777 titer after AMT and UV-A: 8.00E+01 PFU/ml
[4]; 5 minutes
  SLE TBH-28 CDC M29777 titer after AMT and UV-A: 0 PFU/ml
[4]; 10 minutes
  SLE TBH-28 CDC M29777 titer after AMT and UV-A: 0 PFU/ml
[4]; 20 minutes
  SLE TBH-28 CDC M29777 titer after AMT and UV-A: 0 PFU/ml
